According to US20230320360A1, “FORMULATIONS AND METHODS FOR REGULATING AND STIMULATING PLANT GROWTH” (priority 2020, published 2023):

Test system: corn fall armyworm (FAW) (Spodoptera frugiperda)
Assay: Field trials, insecticide plus ortho silicic acid against corn fall armyworm
Format: in vivo
Set-up: concentration or dose not given beside the values

Compound	Percent Control (%) (A01 = 1 day after first spray)	Percent Control (%) (B07 = 7 days after 2nd spray)	Percent Control (%) (B10, after 2nd application)	Percent Control (%) (B21, after 2nd application)
CNC(=O)c1cc(Cl)cc(C)c1NC(=O)c1cc(Br)nn1-c1ncccc1Cl [CTPR, Chlorantraniliprole]	67.6	86.8	88.9	87
Orthosilicic acid [OSA]	32.4	58.6	60.6	59
O=C(NC(=O)c1c(F)cccc1F)Nc1ccc(OC(F)(F)C(F)OC(F)(F)F)c(Cl)c1 (stereo not drawn) [Novaluron]	60.5	88.8	88.9	84.7
